Laboratory results as given in patent US20230257429A1, “PEPTIDE ADJUVANT FOR ITS THERAPEUTIC APPLICATIONS IN VIRAL AND TUMOUR VACCINE DEVELOPMENT AND CANCER IMMUNOTHERAPY AND AUTOIMMUNE DISEASE DIAGNOSIS AND TREATMENTS” (National University of Singapore, priority 2020, published 2023).

Columns and labels:
MyD88 = molecular target: T1, MyD88 (Homo sapiens, UniProt Q99836); assay: MyD88 inhibitor pre-treatment before stimulation, cytokine ELISA; format: cell-based; conditions: monocytes, st-2825 30 μM, 1 hr pre-incubation
T1 construct: endogenous in cells; host or cells: PBMC / monocytes from blood donors
T1 sequence (Q99836 whole entry): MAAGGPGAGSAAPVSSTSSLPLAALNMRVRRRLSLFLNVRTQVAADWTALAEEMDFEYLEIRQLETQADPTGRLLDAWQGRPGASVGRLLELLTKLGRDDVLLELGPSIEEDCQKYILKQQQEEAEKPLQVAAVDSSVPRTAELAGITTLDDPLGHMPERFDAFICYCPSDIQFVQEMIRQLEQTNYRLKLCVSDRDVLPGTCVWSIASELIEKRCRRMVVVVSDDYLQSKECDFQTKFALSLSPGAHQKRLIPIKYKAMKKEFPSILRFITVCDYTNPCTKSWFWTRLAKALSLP
Description: (§1) In some experiments, cells were pre-treated with the MyD88 inhibitor st-2825 (MedChemExpress) or the Caspase-1 inhibitor Ac-YVAD (InvivoGen) for 1 hr before stimulation with TLR ligands or the purified nuclear proteins. In some other experiments, cells were pre-incubated for 1 hr with anti-TLR2, TLR4 and TLR5 antibodies (InvivoGen) before stimulation. The optimal st-2825 and Ac-YVAD concentrations were determined based on both their effects on cell viability and LPS-induced cytokine production. Cell viability was determined using the CELLTITER 96® AQueous One Solution Cell Proliferation (MTS) Assay (Promega).
We then examined whether NCL still induces cytokines when MyD88 is inhibited [Kawai, T. and Akira, S., Semin Immunol 19: 24-32 (2007)]. A MyD88 inhibitor st-2825 was used in this experiment (FIG. 3A). Its optimal concentration was, after titration of its cytotoxicity and its inhibition of LPS-induced cytokine production, determined to be 30 μM (FIG. 5). […] The inhibition of TNFα production by Ac-YVAD could be explained by its blocking autocrine monocytes activation through the IL-1β these cells produce (FIG. 4).

PBMC [1] = assay: PBMC activation, TNFα and IL-1β ELISA; format: cell-based, human; conditions: protein coated on plates, 24 hr, ELISA
Description: (§2) Buffy coat fractions were obtained from healthy blood donors at the Singapore Health Sciences Authority, with Institutional ethics approval, and PBMC were isolated using Ficoll-Paque (GE Healthcare). To isolate monocytes, PBMC were re-suspended to 1×10^7 cells/ml in the RPMI medium contained 5% (v/v) BCS and incubated for 1 hr in T75 flasks (20 ml/flask). Monocytes that adhered were harvested. To culture macrophages and DC [Cao, W., et al., Blood 107: 2777-2785, (2006), incorporated herein by reference], monocytes were resuspended to 1×10^6 cells/ml and cultured in 6-well plates (2 ml/well). Macrophages were cultured by adding M-CSF to 20 ng/ml and DC were cultured with 20 ng/ml GM-CSF and 40 ng/ml IL-4. M-CSF, GM-CSF and IL-4 were obtained from R&D Systems (Mineapolis, Minn.). Cells were cultured for 6 days with half of the media being replenished every two days.
(§3) Purified proteins in PBS (30 μg/ml) were coated in triplicates in 96-well plates (50 μl/well) for 12 hr and PBMC (3×10^6 cells/ml), monocytes (1×10^6 cells/ml), macrophages (0.5×10^6 cells/ml) or DC (0.5×10^6 cells/ml) were re-suspended in macrophage serum-free medium containing penicillin and streptomycin and cultured for 24 hr in these plates at 100 μl/well. Where TLR ligands were used to stimulate these cells, they were added to the media: LPS (500 ng/ml for DC and macrophages and 10 ng/ml for PMBC and monocytes, InvivoGen), flagellin (1 μg/ml, InvivoGen), lipoteichic acid (LTA, 10 μg/ml). Cell activation was determined by measuring TNFα and IL-1β in the culture media using ELISA kits (Invitrogen).

monocytes [2] = assay: Monocyte activation, TNFα and IL-1β ELISA; format: cell-based, human
Description: as §2
[…] Where TLR ligands were used to stimulate these cells, they were added to the media: LPS (500 ng/ml for DC and macrophages and 10 ng/ml for PMBC and monocytes, InvivoGen), flagellin (1 μg/ml, InvivoGen), lipoteichic acid (LTA, 10 μg/ml). Cell activation was determined by measuring TNFα and IL-1β in the culture media using ELISA kits (Invitrogen).

[3] = system: dendritic cells (DC) and macrophages; assay: DC and macrophage activation, cytokine ELISA; format: cell-based, human; conditions: protein coated on plates
Description: as §2
as §3, with “Where TLR ligands were used to stimulate these cells, they were added to the media: LPS (500 ng/ml for DC and macrophages and 10 ng/ml for PMBC and monocytes, InvivoGen), flagellin (1 μg/ml, InvivoGen), lipoteichic acid (LTA, 10 μg/ml).” left out

TLR4/CD14/MD2 = molecular target: T2, TLR4/CD14/MD2 (Homo sapiens, UniProt O00206); assay: TLR and NF-κB-luciferase assay in 293T cells, TLR4/CD14/MD2; format: cell-based; conditions: on top of high TLR4 autoactivation
T2 construct: expressed in transfected cells; host or cells: human embryonic kidney 293T cells
T2 sequence (O00206 24-839): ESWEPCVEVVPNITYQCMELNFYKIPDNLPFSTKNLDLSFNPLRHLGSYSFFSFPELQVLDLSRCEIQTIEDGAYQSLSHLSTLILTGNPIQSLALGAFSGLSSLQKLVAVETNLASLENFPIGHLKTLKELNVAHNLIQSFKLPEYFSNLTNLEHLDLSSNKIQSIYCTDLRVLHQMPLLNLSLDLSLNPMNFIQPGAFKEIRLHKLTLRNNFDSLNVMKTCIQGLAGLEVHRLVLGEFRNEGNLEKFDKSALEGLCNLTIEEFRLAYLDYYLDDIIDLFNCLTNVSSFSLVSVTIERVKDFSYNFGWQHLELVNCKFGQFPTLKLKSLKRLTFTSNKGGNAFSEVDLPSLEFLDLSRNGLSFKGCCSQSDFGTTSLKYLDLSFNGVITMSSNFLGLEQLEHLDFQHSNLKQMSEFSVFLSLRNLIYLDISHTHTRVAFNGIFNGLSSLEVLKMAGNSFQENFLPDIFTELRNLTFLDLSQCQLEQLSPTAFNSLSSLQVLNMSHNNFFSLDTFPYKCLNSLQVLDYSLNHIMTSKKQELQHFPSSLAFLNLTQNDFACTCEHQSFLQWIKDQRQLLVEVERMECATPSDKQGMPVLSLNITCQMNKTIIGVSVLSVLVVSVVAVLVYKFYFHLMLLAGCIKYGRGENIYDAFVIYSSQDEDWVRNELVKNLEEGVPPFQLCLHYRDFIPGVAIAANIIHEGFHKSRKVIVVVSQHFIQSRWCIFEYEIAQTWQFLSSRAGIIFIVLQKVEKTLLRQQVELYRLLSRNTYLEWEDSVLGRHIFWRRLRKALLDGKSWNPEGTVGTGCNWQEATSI
T2 sequence (Q9Y6Y9 19-160 partner): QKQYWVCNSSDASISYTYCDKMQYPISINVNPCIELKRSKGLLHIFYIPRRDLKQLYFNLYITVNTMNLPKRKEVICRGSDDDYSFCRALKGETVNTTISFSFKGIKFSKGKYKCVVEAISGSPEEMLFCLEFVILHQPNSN
Description: (§4) TLR-mediated NF-κB activation was determined using a Dual Luciferase Reporter Assay (Promega), in which two luciferase reporter plasmids were used. One plasmid expresses the firefly luciferase under the regulation of inducible NF-κB promoter and the other plasmid expresses the Renilla luciferase under a constitutively active CMV promoter [Zhang, H., et al., FEBS Lett 532: 171-176 (2002)]. Besides these luciferase vectors, cells were co-transfected with vectors coding for human TLRs or, in the case of TLR4, co-transfected with CD14 and MD2 [according to Zhang, H., et al., J. FEBS Lett 532: 171-176 (2002), incorporated herein by reference]. Transfection was performed using the TurboFect Transfection Reagent (Thermo Fisher Scientific). After 24 hr, cells were harvested and cultured for 24 hr in 96-well plates coated with the purified proteins or, as controls, cultured in blank plates but stimulated with TLR ligands. Cells were lysed to measure both firefly and Renilla luciferase activities and, in each sample, the firefly activity was normalized to the Renilla luciferase activity and expressed as relative NF-κB activation. […]

TLR5 = molecular target: T3, TLR5 (Homo sapiens, UniProt O60602); assay: TLR and NF-κB-luciferase assay in 293T cells, TLR5; format: cell-based; conditions: protein-coated plates
T3 construct: expressed in transfected cells; host or cells: human embryonic kidney 293T cells
T3 sequence (O60602 21-858): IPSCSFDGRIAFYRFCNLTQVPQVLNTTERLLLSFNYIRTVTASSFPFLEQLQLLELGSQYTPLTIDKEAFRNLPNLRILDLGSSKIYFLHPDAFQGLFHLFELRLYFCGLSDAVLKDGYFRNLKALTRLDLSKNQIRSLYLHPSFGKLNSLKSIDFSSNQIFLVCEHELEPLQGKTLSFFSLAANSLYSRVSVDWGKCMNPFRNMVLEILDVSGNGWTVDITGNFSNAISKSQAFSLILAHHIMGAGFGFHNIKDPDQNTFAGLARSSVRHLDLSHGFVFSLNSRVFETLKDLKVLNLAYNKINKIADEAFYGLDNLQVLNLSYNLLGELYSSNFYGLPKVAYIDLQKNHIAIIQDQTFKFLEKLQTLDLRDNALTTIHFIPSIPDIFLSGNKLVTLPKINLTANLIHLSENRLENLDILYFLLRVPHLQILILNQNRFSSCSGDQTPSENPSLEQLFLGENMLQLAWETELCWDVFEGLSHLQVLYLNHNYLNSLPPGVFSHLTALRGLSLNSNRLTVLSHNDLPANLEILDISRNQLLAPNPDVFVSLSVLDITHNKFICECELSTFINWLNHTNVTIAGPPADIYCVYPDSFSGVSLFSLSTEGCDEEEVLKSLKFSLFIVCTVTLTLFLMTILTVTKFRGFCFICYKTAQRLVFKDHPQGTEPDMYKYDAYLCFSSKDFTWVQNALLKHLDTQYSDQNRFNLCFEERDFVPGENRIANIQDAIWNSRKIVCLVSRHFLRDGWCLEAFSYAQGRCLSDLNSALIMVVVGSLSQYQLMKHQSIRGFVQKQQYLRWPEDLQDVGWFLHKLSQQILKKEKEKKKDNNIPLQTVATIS
Description: as §4

monocytes [4] = assay: TLR-blocking antibody pre-incubation before stimulation, TNFα; format: cell-based, human; conditions: monocytes pre-incubated with blocking antibody
Description: as §1
Therefore, TLR2 is clearly a sensing receptor for NCL as well as HMGB1. We then further analyzed the contribution of TLR2, TLR4 and TLR5 to NCL and HMGB1 recognition in their natural cellular contexts. Monocytes were pre-incubated with antibodies that were known to block each of these TLRs and then stimulated with the respective microbial ligands i.e. lipoteichoic acid (LTA), LPS and flagellin (FIG. 3E). […] NCL is a 710-amino acid protein and it is interesting to identify the specific NCL region that activates TLR2.

PBMC [5] = assay: PBMC activation, TNFα and IL-1β ELISA; format: cell-based, human; conditions: 2.5, 5.0, 10, 14, 18 and 24 hr
TLR2 [6] = molecular target: T4, TLR2 (Homo sapiens, UniProt O60603); assay: TLR and NF-κB-luciferase assay in 293T cells, TLR2/TLR1/TLR6/TLR10; format: cell-based; set-up: expressed in transfected cells; host or cells: human embryonic kidney 293T cells
Description: TLR-mediated NF-κB activation was determined using a Dual Luciferase Reporter Assay (Promega), in which two luciferase reporter plasmids were used. […] Transfection was performed using the TurboFect Transfection Reagent (Thermo Fisher Scientific). After 24 hr, cells were harvested and cultured for 24 hr in 96-well plates coated with the purified proteins or, as controls, cultured in blank plates but stimulated with TLR ligands. Cells were lysed to measure both firefly and Renilla luciferase activities and, in each sample, the firefly activity was normalized to the Renilla luciferase activity and expressed as relative NF-κB activation.
TLRs and, where it required, co-receptors were co-transfected in a total of 4 combinations, i.e. TLR2/1/6/10, TLR4/CD14/MD2, TLR5, or TLR3/7/8/9. Two luciferase expression vectors were used: one expresses the firefly luciferase under 5 repeats of the NF-κB gene promoter and the other expresses the Renilla luciferase under the constitutively active CMV promoter (FIG. 3A).
Target sequence in this assay (O60603 21-784): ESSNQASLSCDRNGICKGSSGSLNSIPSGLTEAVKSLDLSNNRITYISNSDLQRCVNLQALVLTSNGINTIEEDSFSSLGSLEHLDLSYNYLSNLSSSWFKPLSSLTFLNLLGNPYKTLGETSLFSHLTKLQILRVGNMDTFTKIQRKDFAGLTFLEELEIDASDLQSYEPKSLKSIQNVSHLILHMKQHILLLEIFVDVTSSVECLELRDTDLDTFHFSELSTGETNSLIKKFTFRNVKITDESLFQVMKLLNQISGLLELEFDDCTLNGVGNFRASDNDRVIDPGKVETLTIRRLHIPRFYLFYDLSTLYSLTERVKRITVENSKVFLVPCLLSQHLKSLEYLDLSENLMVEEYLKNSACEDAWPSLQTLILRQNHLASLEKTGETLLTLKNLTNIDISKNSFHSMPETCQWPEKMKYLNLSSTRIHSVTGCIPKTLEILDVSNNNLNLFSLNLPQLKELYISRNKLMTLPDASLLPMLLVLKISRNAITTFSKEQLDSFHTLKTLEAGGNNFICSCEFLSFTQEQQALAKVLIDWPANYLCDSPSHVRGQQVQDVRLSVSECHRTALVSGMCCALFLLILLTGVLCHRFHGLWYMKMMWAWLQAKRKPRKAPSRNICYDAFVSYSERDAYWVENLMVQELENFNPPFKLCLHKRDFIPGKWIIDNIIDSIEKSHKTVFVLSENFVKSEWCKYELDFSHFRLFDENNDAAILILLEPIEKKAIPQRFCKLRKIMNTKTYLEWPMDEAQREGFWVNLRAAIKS

PBMC [7] = assay: Peptide binding to and penetration of PBMC, flow cytometry; format: cell-based, human; conditions: for cell surface binding of peptide at 37° C.: PBMC gated for monocytes, B cells, T cells; for cell surface binding of peptide at 37° C. / intracellular peptide at 37° C.: 1 hr; for intracellular peptide at 4° C.: B cells and T cells, permeabilized; for intracellular peptide at 37° C.: permeabilized cells
Description: PBMC re-suspended in 100 μl macrophage serum free media (3×10^6/ml) were incubated with different peptides (200 μg/ml). PBMC (100 μl) were incubated with the peptides for 1 hr at 37° C. or 4° C. Cells were washed twice in 2% FBS/PBS and incubated with streptavidin-AF488 and Zombie (NIR) Fixable viability stain-APC-Cy7 for 30 min at 4° C. Cells were then fixed with 1% PFA for 30 min at room temperature and analysed using the Fortessa analyser (BD). In some experiments, PBMC were, after incubation with peptides, incubated with Zombie (NIR) Fixable viability stain (APC-Cy7) for 30 min at 4° C. Cells were then fixed and permeabilized with BD CYTOFIX/CYTOPERM™ Kit for 20 min at 4° C., and then incubated with streptavidin-AF488 for 30 min at 4° C. In some experiments, PBMC were, after incubation with the peptides, stained with fluorescent mouse antibodies specific for monocytes (CD14/BV711), T cells (CD3/PerCP-Cy5-5) and B cells (CD19/Pacific blue). Cells were then stained with Zombie (NIR) Fixable viability stain-APC-Cy7 and streptavin-AF488, with or without membrane permeabilization. In these experiments, monocytes, T cells and B cells were separately gated to detect surface peptide binding and intracellular peptide penetration.

[8] = system: dendritic cells (DC) and macrophages; conditions: Wu et al. 2021; cited from earlier work
TLR2 [9] = molecular target: T4, TLR2; assay: TLR2 binding assay (ELISA plate); set-up: purchased R&D Systems; conditions: TLR2 coated 2 μg/ml
Target sequence in this assay (O60603 21-590 limits assumed): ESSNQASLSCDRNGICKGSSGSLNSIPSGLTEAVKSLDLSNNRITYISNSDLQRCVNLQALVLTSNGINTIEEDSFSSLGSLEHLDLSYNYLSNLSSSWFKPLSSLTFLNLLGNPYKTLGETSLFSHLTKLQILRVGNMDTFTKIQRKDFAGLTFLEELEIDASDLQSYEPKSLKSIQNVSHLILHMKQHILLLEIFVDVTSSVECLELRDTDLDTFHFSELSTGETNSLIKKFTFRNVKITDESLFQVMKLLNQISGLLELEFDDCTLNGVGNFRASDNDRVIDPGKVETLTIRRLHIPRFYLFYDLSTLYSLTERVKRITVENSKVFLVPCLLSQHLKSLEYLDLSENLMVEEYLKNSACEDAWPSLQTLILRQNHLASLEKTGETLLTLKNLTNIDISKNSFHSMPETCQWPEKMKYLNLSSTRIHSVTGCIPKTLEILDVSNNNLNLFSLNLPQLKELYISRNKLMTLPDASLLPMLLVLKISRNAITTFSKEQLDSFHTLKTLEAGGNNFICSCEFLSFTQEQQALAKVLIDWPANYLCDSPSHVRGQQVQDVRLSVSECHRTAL

For NC(=O)[C@H]1CCS[C@@H]2C[C@]3(CCCN3C(=O)Cc3ccc(NC(=O)COc4ccc(Cl)cc4Cl)cc3)C(=O)N12 [st-2825], the “inhibition of HMGB1 and LPS induction of TNFα and IL-1β” value (MyD88) was “also inhibited” and the “inhibition of NCL induction of TNFα and IL-1β” value (MyD88) was “partially but significantly inhibited”.

For “HMGB1: HMGB1 purified from T×NE as an alarmin control”, the “TNFα and IL-1β production from PBMC” value (PBMC [1]) was “HMGB1 did”, the “TNFα and IL-1β production from monocytes” value (monocytes [2]; protein coated on plates, 24 hr, ELISA) was “HMGB1 did” and the “cytokine production from dendritic cells (DC) and macrophages” value [3] was “also induced cytokine production”. The “NF-κB activation via TLR4/CD14/MD2” value (TLR4/CD14/MD2) was “marginal but significant additional TLR4 activation”, the “NF-κB activation via TLR5” value (TLR5) was “consistently activated TLR5” and the “effect of TLR2 antibody on TNFα production induced by the protein” value (monocytes [4]) was “significantly inhibited”. For the same compound, the “effect of TLR4 antibody on TNFα production induced by the protein” value (monocytes [4]) was “significantly inhibited”, the “effect of TLR5 antibody on TNFα production induced by the protein” value (monocytes [4]) was “significantly inhibited” and the “kinetics of IL-1β induction from PBMC” value (PBMC [5]) was “rapidly surged to plateau”. The “kinetics of TNFα induction from PBMC” value (PBMC [5]) was “linear early increase but a noticeable late surge”, the “TLR2 response when expressed without TLR1/TLR6/TLR10 or co-expressed with TLR5” value (TLR2 [6]) was “not significantly affected” and the “NF-κB activation via TLR2/TLR1/TLR6/TLR10 combination” value (TLR2 [6]; protein-coated plates, 24 hr) was “prominent activation”.

In the case of “GGFGGRGGGRGGRGGFGGRGRGGFGGRGGFRGGRGG (NCL-P2)”, the “alarmin activity compared with NCL-P1” value (monocytes [2]; monocytes) is reported as “stronger alarmin activity than NCL-P1”, the “cytokine induction, soluble versus coated (immobilized) form” value (monocytes [2]; monocytes, 24 hr) is reported as “induced more cytokines than immobilized peptides” and the “cytokines induced by plate-coated peptide compared with NCL-P1” value (monocytes [2]; monocytes, peptides coated on plates) is reported as “induced more cytokines than NCL-P1”. The “TNFα induced relative to NCL-P1” value (monocytes [2]; monocytes, soluble peptide 40 μg/ml) was “approximately 10 fold”, the “TNFα induction from monocytes (7 NCL peptides)” value (monocytes [2]; peptides 50 or 200 μg/ml, 24 hr) was “induced TNFα” and the “TNFα induction from monocytes at lower concentrations” value (monocytes [2]; soluble peptide 10 and 20 μg/ml) was “induced little TNFα”. The “TNFα induction from monocytes at higher concentrations” value (monocytes [2]; soluble peptide 80 and 160 μg/ml) was “strongly induced TNFα production”, the “intracellular pool / cell penetration (CPP activity) in PBMC” value (PBMC [7]; 1 hr at 4° C., fixed/permeabilized, streptavidin-AF488) was “accumulate intracellular pools” and the “cell surface binding of peptide at 37° C.” value (PBMC [7]) was “the majority of monocytes and smaller fractions of B and T cells”. For the same compound, the “cell surface binding of peptide at 37° C.” value (PBMC [7]; listed as P2) was “surface binding was only prominent on PBMC and monocytes”, the “intracellular peptide at 4° C.” value (PBMC [7]; monocytes) was “similarly high intracellular pools of the peptide” and the “intracellular peptide at 4° C.” value (PBMC [7]; monocytes, listed as P2) was “similarly high levels of intracellular P2 peptide irrespective of the temperature of incubation”. For the same compound, the “surface-bound peptide at 4° C.” value (PBMC [7]; monocytes, compared with 37° C.) was “increased significantly”, the “intracellular peptide at 37° C.” value (PBMC [7]) was “much higher level of the peptide was detected in all PBMC” and the “intracellular peptide at 37° C.” value (PBMC [7]; listed as P2) was “similarly high levels of intracellular P2 peptide irrespective of the temperature of incubation”. For the same compound, the “DC activation judged by TNFα induction” value [8] was “activate DC”, the “concentration at which saturated TLR2 binding was reached” value (TLR2 [9]) was 3.2 µg/mL and the “peptide binding to coated TLR2” value (TLR2 [9]; biotin peptides at increasing concentrations) was “dose-dependent and saturable binding to TLR2”.
